row,Structure (SMILES),logP
1,CCCCCCC1CCC(=O)O1 (configuration not stated),2.72
2,O=NN(CCCl)C(=O)NC1CCC(C(=O)O)CC1 (configuration not stated),1.68
3,COC(=O)NS(=O)(=O)c1ccc(N)cc1,-0.27
4,CCCC(=O)O[C@H]1[C@H](C)O[C@@H](O[C@H]2[C@H](N(C)C)[C@@H](O)[C@H](O[C@H]3[C@@H](CC=O)C[C@@H](C)[C@@H](O)C=CC=CC[C@@H](C)OC(=O)C[C@@H](O)[C@@H]3OC)O[C@@H]2C)C[C@@]1(C)OC(=O)CC,3.08
5,CC(C)N1CCOC(c2ccccc2)C1 (configuration not stated),2.3
6,Nc1ccc(S(=O)(=O)c2ccc(N)cc2)cc1,0.97
7,C=CCc1cccc2c(=O)c(C)c(-c3ccccc3)oc12,4.67
8,O=C(O)Cc1ccc(O)cc1,0.75
9,O=[N+]([O-])CCc1ccccc1,2.08
10,NCCO,-1.31
11,CCN=C=S,1.47
12,Cc1ccc(S(N)(=O)=O)cc1,0.82
13,CCCCOCCOCCSC#N,1.68
14,NC=O,-1.51
15,COc1cc2c(cc1OC)C13CCN4CC5CCOC6CC(=O)N2C1C6C5CC43 (configuration not stated),0.84
16,COc1cc(C(=O)NN)ccn1,-0.1
17,NC(=O)c1ncn2c(=O)n(CCCl)nnc12,-0.47
18,Oc1ccc(Sc2ccc(O)cc2)cc1,3.34
19,O=[N+]([O-])c1nccn1CC(F)CO (configuration not stated),-0.38
20,Clc1ccc(-c2c(Cl)cccc2Cl)cc1,5.75
21,NC(=O)Nc1ccc(F)cc1,1.04
22,O=C(O)C(c1ccc(-c2ccccc2)cc1)C(O)c1ccccc1F (configuration not stated),3.77
23,CC[C@H](C)[C@H](NC(=O)[C@@H](NC(=O)[C@H](C)NC(C)=O)C(C)C)C(N)=O,-0.2
24,CC1CN1C1=CC(=O)C(N2CC2C)=CC1=O (configuration not stated),1.07
25,CC(CN(C)C)CN1c2ccccc2Sc2ccccc21 (configuration not stated),4.71
26,c1ccc2c(c1)COC2,1.76

row,Structure (SMILES),logP
1,O=C1c2ccccc2C(=O)C1c1ccccc1,2.9
2,CC(C)(C)C(=O)OCC1CCC(n2cnc3c(=O)[nH]cnc32)O1 (configuration not stated),0.6
3,NC(=O)c1cnc2ccccc2c1,1.06
4,Oc1c(O)c(Cl)c(Cl)c(Cl)c1Cl,4.29
5,CC(C)CC(N)Cc1ccccc1 (configuration not stated),3.29
6,CNC(=O)C1C(C)CC2C3CCC4=CC(=O)C=CC4(C)C3(F)C(O)CC21C (configuration not stated),1.54
7,CCCCCCOC(N)=O,1.85
8,COc1cccc(O)c1,1.34
9,CC(C)c1ccccc1OC(=O)N(C)C,2.65
10,CN(CC(F)(F)F)N=Nc1ccc(C(N)=O)cc1,1.86
11,CCO[Si](OCC)(c1ccccc1)c1ccccc1,4.92
12,COc1ccc(C(c2ccc(OC)cc2)C(Cl)(Cl)Cl)cc1,5.08
13,O=C1C(Cl)=C(Nc2ccccc2)C(=O)c2ccccc21,4.22
14,NC(=O)c1cccc(O)c1,0.39
15,c1ccc(-c2cccs2)cc1,3.74
16,CC1CCC(NC(=O)N(CCCl)N=O)CC1 (configuration not stated),3.3
17,COCCN(C)c1ccc(Nn2c(C)ccc2C)nn1,2.16
18,O=C(O)c1ccc(O)cc1O,1.63
19,CC(=O)OCC(=O)[C@@]12OC(C)(C)O[C@@H]1C[C@H]1[C@@H]3C[C@H](F)C4=CC(=O)C=C[C@]4(C)[C@@]3(F)[C@@H](O)C[C@@]12C,3.19
20,COC(=O)c1ccsc1,1.76
21,CC(C)(C)c1cccc(OCC(=O)O)c1,2.96
22,O=C(O)COc1cccc(Br)c1,2.22
23,CCCCCOC(=O)c1ccc(N)cc1,3.48
24,CN(Cc1cnc2nc(N)nc(N)c2n1)c1c(Cl)cc(C(=O)N[C@@H](CCC(=O)O)C(=O)O)cc1Cl,-0.1
25,COC(=O)C(C)N(C(=O)Cc1ccccc1)c1c(C)cccc1C (configuration not stated),3.4
26,Nc1ccccc1Oc1ccccc1,2.46

row,Structure (SMILES),logP
1,Cc1ncc([N+](=O)[O-])n1CCCl,0.88
2,ClC(Cl)C(Cl)(Cl)Cl,3.22
3,CSc1ncc2ccccc2n1,2.5
4,CC(C)=CC1C(C(=O)OCc2ccccc2)C1(C)C (configuration not stated),5.49
5,CC(=O)C=Cc1ccccc1,2.07
6,CCC(=O)OCC(=O)C1(O)CCC2C3CCC4=CC(=O)CCC4(C)C3C(O)CC21C (configuration not stated),2.8
7,O=C1C=C(Br)C(=O)c2ccccc21,2.44
8,CC(C)CC(=O)NC(N)=O,0.45
9,O=[N+]([O-])c1ccc(OC2OC(CO)C(OC3OC(CO)C(O)C(O)C3O)C(O)C2O)cc1 (configuration not stated),-1.39
10,CC12CCC(=O)C=C1CCC1C2C(O)CC2(C)C1CCC2(O)C(=O)COC(=O)CCCCCC(N)=O (configuration not stated),2.3
11,O=C(O)COc1ccccc1I,2.33
12,CC(C)I,2.89
13,CCNc1nc(Cl)nc(NC(C)(C)C#N)n1,2.22
14,C[n+]1cccc2ccccc21.[Br-],-2.64
15,Cc1ccc([N+](=O)[O-])cn1,0.99
16,COC(=O)c1ccc(N=NN(C)C)cc1,3.22
17,CN(C)C(=O)Nc1ccc(C(=O)c2ccccc2)cc1,2.59
18,FS(F)(F)(F)(F)c1ccccc1,3.36
19,NCCCCCc1cccnc1,1.41
20,Cc1ccc([N+](=O)[O-])cc1,2.37
21,CCCCCl,2.64
22,CCCOC(=O)c1cc(O)c(O)c(O)c1,1.8
23,O=Cc1ccc([N+](=O)[O-])o1,1.01
24,C=CCC1=C(C)C(OC(=O)C2C(C=C(C)C)C2(C)C)CC1=O (configuration not stated),4.78
25,CC(C)COC(=O)c1cc(O)c(O)c(O)c1,2.46
